Source: US11613546B2, “Substituted pyridotriazine compounds and uses thereof” (Gilead Sciences, Inc., priority 2021, dated 2023)
Read-outs that look alike come from different tables or passages of the source.

Assays:
HIV-1 (IIIB) = assay: Antiviral assay in MT-4 cells; assay type: cell-based; details: HIV-1 IIIB infected MT-4 cells, 5 days, Cell Titer Glo, read-out: MT4 EC50
Method in brief: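 MT-4 cells infected with a 1:250 dilution of HIV-1 IIIB stock were incubated with serially diluted (1:3) compound for 5 days at 37 °C. Viability read by Cell Titer Glo luminescence; EC50 is the concentration giving 50% decrease in signal, from sigmoidal dose-response fits.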

[1] = Cytotoxicity assay in MT-4 cells; assay type: cell-based; details: human, uninfected MT-4 cells, 5 days, Cell Titer Glo; read-out: CC50
Method in brief: (§1)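 Uninfected MT-4 cells were incubated with 1:3 serially diluted compound in RPMI/10% FBS for 5 days at 37° C. Viability was read by CellTiter-Glo luminescence, with 10 μM puromycin as the baseline cytotoxicity control. Values are the concentration giving a 50% decrease in luminescence, from sigmoidal dose-response fits.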

pLai RLuc reporter virus = assay: HIV MT-4 serum shift antiviral reporter assay; assay type: cell-based
Method in brief: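 MT-4 cells pre-infected with pLai RLuc virus for 2 h at 37 °C, then incubated 72 h at 37 °C with compound in medium (RPMI, 10% FBS) with or without 50% human serum; Renilla luminescence read. EC50 from sigmoidal fit; serum shift = EC50(HS/CCM)/EC50(CCM).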

[2] = Monkey PK after single-dose intravenous infusion; assay type: in vivo, monkeys; details: for half-life: cynomolgus, monkeys, single-dose intravenous infusion for 30 minutes, plasma, read-out: Cyno half-life (converted)
Description: Test compound PK was determined in monkeys (Labcorp, Madison, Wis.) following a single-dose intravenous infusion for 30 minutes. The dosing vehicle was 10% N-methylpyrrolidone; 50% polyethylene glycol 300 and 40% water (pH 8.3) for intravenous administration in monkeys. Serial blood samples were collected at predose, 0.25, 0.48 (before end of infusion), 0.58, 0.75, 1, 1.5, 2, 4, 8, 12, 24, 48, 72, 96, 120, 144, and 168 hours postdose (based on start of infusion) and plasma test compound concentrations were quantified using an LC-MS/MS method.
Nonclinical plasma samples were prepared by addition of 200 μl cold acetonitrile/internal standard solution to 96-well plates containing 50 μl aliquots of each plasma sample. After protein precipitation, each of the supernatants (50 μl) were transferred to clean 96-well plates and diluted with 450 μl of water. The sample injection volume was 2 μl. Samples were analyzed by a multiple reaction monitoring LC-MS/MS method. LC-MS system consisted of a Cohesive LX-2 multiplex with two identical DIONEX UltiMate 3000 RS pumps, Hypersil Gold C18 HPLC column (50×2.1 mm, […]; Thermo Fisher Scientific), and the ABSciex QTRAP5500 Mass Spectrometer LC-MS/MS system. Chromatography was performed using 0.1% formic acid and 1% isopropyl alcohol in aqueous solution (MP A), and 0.1% formic acid and 1% isopropyl alcohol in acetonitrile (MP B).
Plasma PK parameters for test compounds in monkeys were estimated via noncompartmental analysis using the software program Phoenix WinNonlin, version 6.3 (Pharsight Corporation, Mountain View, Calif.). The following plasma PK parameters were estimated in nonclinical species (as appropriate): observed peak plasma concentration (Cmax), time to reach Cmax (Tmax), last quantifiable plasma concentration (Clast), tin, time of Clast (Tlast), area under the plasma concentration-time curve (AUC) from time 0 to Clast (AUClast), AUC from time 0 to infinity (AUCinf), CL, mean residence time (MRT), and volume of distribution at steady state (Vss).

MT-4 cells = assay: Cytotoxicity assay in MT-4 cells; assay type: cell-based
Method in brief: as §1

[3] = Human immunodeficiency virus 1, IIIB, MT4, 120 h
[4] = Human immunodeficiency virus 1, 72 h, read-out: RLUC 50% HS (nM), HS/CCM: 50% human serum, 72 h, Renilla Glo
[5] = Human immunodeficiency virus 1, 72 h, read-out: RLUC CCM (nM), cell culture media (RPMI, 10% FBS), 72 h, Renilla Glo

Compound	EC50 (HIV-1 (IIIB); [3])	CC50 at 5 days [1]	EC50 (pLai RLuc reporter virus; [4])	EC50 (pLai RLuc reporter virus; [5])	half-life [2]	EC50 (HIV-1 (IIIB))	CC50 (MT-4 cells)	EC50 (pLai RLuc reporter virus; HS/CCM: 50% human serum, 72 h, Renilla Glo, read-out: RLUC 50% HS)	EC50 (pLai RLuc reporter virus; cell culture media (RPMI, 10% FBS), 72 h, Renilla Glo, read-out: RLUC CCM)	Cyno half-life ([2]; in vivo, iv)
C[C@@H]1CC[C@H](C)N2CN1n1cc(C(=O)NCc3ccc(F)cc3F)c(=O)c(O)c1C2=O [Example C37, (1S,2R,5S)—N-(2,4-difluorobenzyl)-8-hydroxy-2,5-dimethyl-7,9-dioxo-2,3,4,5,7,9-hexahydro-1,6-methanopyrido[1,2-b][1,2,5]triazonine-10-carboxamide]	1.3 nM	8570 nM	325 nM	0.87 nM	22 h	–	–	–	–	–
CC[C@@H]1C=C[C@H](C)N2CN1n1cc(C(=O)NCc3c(F)cc(F)cc3F)c(=O)c(O)c1C2=O [Example C72, (1S,2R,5S)-2-ethyl-8-hydroxy-5-methyl-7,9-dioxo-N-(2,4,6-trifluorobenzyl)-2,5,7,9-tetrahydro-1,6-methanopyrido[1,2-b][1,2,5]triazonine-10-carboxamide]	0.5 nM	13800 nM	251 nM	0.33 nM	51 h	–	–	–	–	–
C[C@H]1C=C[C@@H](CF)N2CN1C(=O)c1c(O)c(=O)c(C(=O)NCc3c(F)cc(F)cc3F)cn12 [Example C76, (1S,2S,5S)-2-(fluoromethyl)-8-hydroxy-5-methyl-7,9-dioxo-N-(2,4,6-trifluorobenzyl)-2,5,7,9-tetrahydro-1,6-methanopyrido[1,2-b][1,2,5]triazonine-10-carboxamide]	1 nM	16400 nM	265 nM	0.42 nM	60 h	–	–	–	–	–
O=C(NCc1c(F)cc(F)cc1F)c1cn2c(c(O)c1=O)C(=O)N1CCCCN2C1 [Example C109, (1S)-8-hydroxy-7,9-dioxo-N-(2,4,6-trifluorobenzyl)-2,3,4,5,7,9-hexahydro-1,6-methanopyrido[1,2-b][1,2,5]triazonine-10-carboxamide]	–	–	–	–	–	1.2 nM	15200 nM	11.4 nM	0.62 nM	4.7 h
